Target: T1, Xyl-L-CshA (LfXyl43 β-xylosidase with C-terminal CshA anchor) (Limosilactobacillus fermentum, UniProt Z9FCD9CVP2)
T1 construct: LfXyl43 fused through (GGGGS)3 linker to C-terminal surface anchor CshA of Lactiplantibacillus plantarum SK156; 6xHis tag; pET21b(+), E. coli BL21(DE3)
T1 sequence (Z9FCD9CVP2 1-551): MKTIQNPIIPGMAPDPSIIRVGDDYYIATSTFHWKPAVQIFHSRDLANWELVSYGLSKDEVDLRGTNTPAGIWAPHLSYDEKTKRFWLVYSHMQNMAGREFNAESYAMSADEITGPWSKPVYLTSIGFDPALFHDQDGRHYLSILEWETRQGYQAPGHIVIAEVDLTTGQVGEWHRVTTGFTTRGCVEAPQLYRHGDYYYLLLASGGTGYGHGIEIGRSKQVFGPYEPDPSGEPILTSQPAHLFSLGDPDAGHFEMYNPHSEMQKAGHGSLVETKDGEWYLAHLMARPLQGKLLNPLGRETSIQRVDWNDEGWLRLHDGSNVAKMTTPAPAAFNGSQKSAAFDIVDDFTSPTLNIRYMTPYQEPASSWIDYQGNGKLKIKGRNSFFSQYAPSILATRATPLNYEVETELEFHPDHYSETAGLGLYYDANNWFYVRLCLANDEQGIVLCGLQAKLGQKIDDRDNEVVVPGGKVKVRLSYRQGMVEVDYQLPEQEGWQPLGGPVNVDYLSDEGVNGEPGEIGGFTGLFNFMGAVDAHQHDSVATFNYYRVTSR
Assay: reducing sugar release (DNSA, […] nm); TLC
Format: biochemical
Details: purified fusion protein immobilised on bacteria-like particles; 2 mM substrate; 50 mM sodium phosphate pH 7.0; 35 °C; 5 min

Compound: OC1OC[C@@H](O[C@@H]2OC[C@@H](O)[C@H](O)[C@H]2O)[C@H](O)[C@H]1O (stereo partly shown) [xylobiose]
- reducing sugar release (DNSA, 540 nm); TLC: CshA-L-Xyl and Xyl-L-CshA (i.e., with linker peptide) had higher catalytic activity towards all XOS substrates

From paper PMC12179037, “Degradation of beechwood xylan using food-grade bacteria-like particles displaying β-xylosidase from Limosilactobacillus fermentum” (Bioresources and Bioprocessing, 2025)
